# Data reported in US20240269145A1, “USE OF INDOLE COMPOUND AS INHIBITORS OF FERROPTOSIS” (MITOIMMUNE THERAPEUTICS INC., priority 2023, published 2024).
# Key:
# Format in all cases: cell-based
# H9C2 cells = assay: Mitochondrial iron ion accumulation (Mito-FerroGreen, images) after erastin; conditions: H9C2, erastin 5 μM, 5 hr; Example Compound 1 1 μM, DFO 100 μM
# Experimental: [The source words this procedure for another cell line and says it was used here with some conditions changed.] Experimental Example 9-1: To confirm the inhibitory effect against mitochondrial iron ion accumulation in lung epithelial cells and adrenal medulla cells, 3×10^5 MLE-12 cells and PC-12 cells were each dispensed into a confocal dish and cultured for 18 to 24 hours. Each well was treated with Example Compound 1 and DFO, which were diluted so that their final concentration became 1 μM and 10 μM, respectively, and culture was performed for 20 minutes. Afterwards, the MLE-12 cells were treated with RSL3 so that the final concentration became 1 μM, and cultured for 1 hour and 30 minutes, and the PC-12 cells were treated with RSL3 so that the final concentration became 0.3 μM, and cultured for 30 minutes. To confirm the inhibitory effect against mitochondrial iron ion accumulation, Mito-FerroGreen [DOJINDO; M489] was used. According to the manufacturer's experimental method, Mito-FerroGreen was diluted in the cell culture medium so that the final concentration became 1 μM, and the cells were treated therewith and allowed to react for 30 minutes to perform fluorescent staining. The cells fluorescently stained with Mito-FerroGreen were observed using a fluorescence microscope [Carl Zeiss; Axio Observer 7] to investigate the change in fluorescence (excitation/absorption 450 to 490 nm/500 to 550 nm) compared to the control group (RSL3 untreated group). […]
# PC-12 cells [1] = assay: Mitochondrial iron ion accumulation (Mito-FerroGreen, images) after RSL3; conditions: PC-12, RSL3 0.3 μM, 30 minutes; Example Compound 1 1 μM, DFO 10 μM
# Experimental: (§1) Experimental Example 9-1: To confirm the inhibitory effect against mitochondrial iron ion accumulation in lung epithelial cells and adrenal medulla cells, 3×10^5 MLE-12 cells and PC-12 cells were each dispensed into a confocal dish and cultured for 18 to 24 hours. Each well was treated with Example Compound 1 and DFO, which were diluted so that their final concentration became 1 μM and 10 μM, respectively, and culture was performed for 20 minutes. Afterwards, the MLE-12 cells were treated with RSL3 so that the final concentration became 1 μM, and cultured for 1 hour and 30 minutes, and the PC-12 cells were treated with RSL3 so that the final concentration became 0.3 μM, and cultured for 30 minutes. To confirm the inhibitory effect against mitochondrial iron ion accumulation, Mito-FerroGreen [DOJINDO; M489] was used. According to the manufacturer's experimental method, Mito-FerroGreen was diluted in the cell culture medium so that the final concentration became 1 μM, and the cells were treated therewith and allowed to react for 30 minutes to perform fluorescent staining. The cells fluorescently stained with Mito-FerroGreen were observed using a fluorescence microscope [Carl Zeiss; Axio Observer 7] to investigate the change in fluorescence (excitation/absorption 450 to 490 nm/500 to 550 nm) compared to the control group (RSL3 untreated group).
# MLE-12 cells = assay: as above; conditions: MLE-12, RSL3 1 μM, 1 hour 30 minutes; Example Compound 1 1 μM, DFO 10 μM
# Experimental: as §1
# PC-12 cells [2] = assay: Cytosolic iron ion accumulation (FerroOrange, images) after RSL3; conditions: PC-12, 0.3 μM RSL3, 1 hour; Example Compound 1 1 μM, DFO 10 or 100 μM
# Experimental: To confirm the inhibitory effect against cytosolic iron ion accumulation in adrenal medulla cells and cardiac cells, 3×10^5 PC-12 cells and H9C2 cells were each dispensed into a 35 mm confocal dish and cultured for 18 to 36 hours. Each well was treated with the Example Compound 1, which was diluted so that the final concentration became 1 μM, and with DFO, which was diluted so that the final concentration became 10 µM and 100 μM, and culture was performed for 20 to 30 minutes. Afterwards, the PC-12 cells and H9C2 cells were each treated with RSL3 and erastin so that their final concentration became 0.3 µM and 1 μM, respectively, and cultured for 1 hour and 7 hours. To confirm the inhibitory effect against cytosolic iron ion accumulation, FerroOrange [DOJINDO; F374] was used. According to the manufacturer's experimental method, FerroOrange was diluted in the cell culture medium so that the final concentration became 1 μM, and the cells were treated therewith. […] The cells fluorescently stained with FerroOrange were observed using a fluorescence microscope [Carl Zeiss; Axio Observer 7] to investigate the change in fluorescence (excitation/absorption 580 nm/543 nm) compared to the control group (RSL3 and erastin untreated group).
compound,measurement,setting,value
"O=S1(=O)CCN(Cc2cc(NC3CCOCC3)c3[nH]c(-c4ccccc4)cc3c2)CC1 [Example 1, 5-[(1,1-dioxido-4-thiomorpholinyl)methyl]-2-phenyl-N-(tetrahydro-2H-pyran-4-yl)-1H-indole-7-amine]",mitochondrial iron ion accumulation (images),H9C2 cells,inhibited
same,mitochondrial iron ion accumulation (images),PC-12 cells [1],decrease was confirmed
same,mitochondrial iron ion accumulation (images),MLE-12 cells,decrease was confirmed
same,cytosolic iron ion accumulation (images),PC-12 cells [2],decrease was confirmed
